According to ChEMBL document CHEMBL1133882, “Benzyloxybenzaldehyde analogues as novel adenylyl cyclase activators” (Bioorg Med Chem Lett, 2001):

What was measured:
Type in all cases: functional
[1] = Ratio of cAMP-elevating activity relative to forskolin
[2] = biological target: Adenylate cyclase (Homo sapiens) (UniProt Q8NFM4+O60503+Q08828+P40145+O60266+O95622+O43306+Q08462+P51828); assay: Effect of compound on cellular c-AMP levels by activation of Adenylate cyclase
[3] = test system: Rattus norvegicus; assay: In vitro inhibitory effect on neutrophil superoxide formation isolated from pentobarbital-anesthetized rats

Activity (pM (2*10e6*cells)-1) [2]	IC50 [3] [µM]	SMILES	Ratio [1]
0.26	14.8	O=Cc1ccc(OCc2ccccc2)cc1	0.22
1.3	15.6	O=Cc1ccccc1OCc1ccccc1	1.1
0.26	12.8	CC(=O)c1ccccc1OCc1ccccc1	0.22

The next lines start with the compound.

SMILES	Activity (pM (2*10e6*cells)-1) [2]	IC50 [3] [µM]	Ratio [1]
C=C[C@@]1(C)CC(=O)[C@]2(O)[C@@]3(C)[C@@H](O)CCC(C)(C)[C@@H]3[C@H](O)[C@H](OC(C)=O)[C@@]2(C)O1	< 1.23	–	1
CN1CCN(CCCN2c3ccccc3Sc3ccc(C(F)(F)F)cc32)CC1 [TRIFLUOPERAZINE]	–	14.7	–
O=Cc1cccc(OCc2ccccc2)c1	0.56	> 30	0.46
NC(=O)c1ccccc1OCc1ccccc1	0.29	19.8	0.24
